Values after ≈ are worked out from the molar mass of the structure shown.
Key:
[1] = test system: SR; experiment: Growth inhibition of human SR cells at 10 uM relative to control; format: functional; conditions: read-out: GI
[2] = test system: HOP-62; experiment: Growth inhibition of human HOP-62 cells at 10 uM relative to control; format: functional; conditions: read-out: GI
[3] = test system: HCT-15; experiment: Growth inhibition of human HCT-15 cells at 10 uM relative to control; format: functional; conditions: read-out: GI
[4] = test system: UACC-62; experiment: Growth inhibition of human UACC-62 cells at 10 uM relative to control; format: functional; conditions: read-out: GI
[5] = test system: COLO 205; experiment: Growth inhibition of human COLO 205 cells at 10 uM relative to control; format: functional; conditions: read-out: GI
[6] = test system: U-251; experiment: Growth inhibition of human U-251 cells at 10 uM relative to control; format: functional; conditions: read-out: GI
[7] = test system: OVCAR-8; experiment: Growth inhibition of human OVCAR-8 cells at 10 uM relative to control; format: functional; conditions: read-out: GI
[8] = test system: DU-145; experiment: Growth inhibition of human DU-145 cells at 10 uM relative to control; format: functional; conditions: read-out: GI
[9] = test system: KM12; experiment: Growth inhibition of human KM12 cells at 10 uM relative to control; format: functional; conditions: read-out: GI
[10] = test system: SN12C; experiment: Growth inhibition of human SN12C cells at 10 uM relative to control; format: functional; conditions: read-out: GI
[11] = test system: T47D; experiment: Growth inhibition of human T47D cells at 10 uM relative to control; format: functional; conditions: read-out: GI
[12] = test system: NCI/ADR-RES; experiment: Growth inhibition of human NCI/ADR-RES cells at 10 uM relative to control; format: functional; conditions: read-out: GI
[13] = test system: UO-31; experiment: Growth inhibition of human UO-31 cells at 10 uM relative to control; format: functional; conditions: read-out: GI
[14] = test system: Malme-3M; experiment: Growth inhibition of human Malme-3M cells at 10 uM relative to control; format: functional; conditions: read-out: GI
[15] = test system: Hs-578T; experiment: Growth inhibition of human Hs-578T cells at 10 uM relative to control; format: functional; conditions: read-out: GI
[16] = test system: CAKI-1; experiment: Growth inhibition of human CAKI-1 cells at 10 uM relative to control; format: functional; conditions: read-out: GI
[17] = test system: NCI-H23; experiment: Growth inhibition of human NCI-H23 cells at 10 uM relative to control; format: functional; conditions: read-out: GI
[18] = test system: MDA-MB-231; experiment: Growth inhibition of human MDA-MB-231 cells at 10 uM relative to control; format: functional; conditions: read-out: GI
[19] = test system: HOP-92; experiment: Growth inhibition of human HOP-92 cells at 10 uM relative to control; format: functional; conditions: read-out: GI
[20] = test system: SK-MEL-28; experiment: Growth inhibition of human SK-MEL-28 cells at 10 uM relative to control; format: functional; conditions: read-out: GI
[21] = test system: ACHN; experiment: Growth inhibition of human ACHN cells at 10 uM relative to control; format: functional; conditions: read-out: GI
[22] = test system: SNB-19; experiment: Growth inhibition of human SNB-19 cells at 10 uM relative to control; format: functional; conditions: read-out: GI
[23] = test system: SW-620; experiment: Growth inhibition of human SW-620 cells at 10 uM relative to control; format: functional; conditions: read-out: GI
[24] = test system: SK-OV-3; experiment: Growth inhibition of human SK-OV-3 cells at 10 uM relative to control; format: functional; conditions: read-out: GI
[25] = test system: SF-295; experiment: Growth inhibition of human SF-295 cells at 10 uM relative to control; format: functional; conditions: read-out: GI
[26] = test system: MDA-MB-468; experiment: Growth inhibition of human MDA-MB-468 cells at 10 uM relative to control; format: functional; conditions: read-out: GI
[27] = test system: HT-29; experiment: Growth inhibition of human HT-29 cells at 10 uM relative to control; format: functional; conditions: read-out: GI
[28] = test system: RPMI-8226; experiment: Growth inhibition of human RPMI-8226 cells at 10 uM relative to control; format: functional; conditions: read-out: GI
[29] = test system: UACC-257; experiment: Growth inhibition of human UACC-257 cells at 10 uM relative to control; format: functional; conditions: read-out: GI
[30] = test system: OVCAR-4; experiment: Growth inhibition of human OVCAR-4 cells at 10 uM relative to control; format: functional; conditions: read-out: GI
[31] = test system: NCI-H226; experiment: Growth inhibition of human NCI-H226 cells at 10 uM relative to control; format: functional; conditions: read-out: GI
[32] = test system: IGROV-1; experiment: Growth inhibition of human IGROV-1 cells at 10 uM relative to control; format: functional; conditions: read-out: GI
[33] = test system: HL-60(TB); experiment: Growth inhibition of human HL-60(TB) cells at 10 uM relative to control; format: functional; conditions: read-out: GI
[34] = test system: PC-3; experiment: Growth inhibition of human PC-3 cells at 10 uM relative to control; format: functional; conditions: read-out: GI
[35] = test system: MOLT-4; experiment: Growth inhibition of human MOLT-4 cells at 10 uM relative to control; format: functional; conditions: read-out: GI
[36] = test system: SF-268; experiment: Growth inhibition of human SF-268 cells at 10 uM relative to control; format: functional; conditions: read-out: GI
[37] = test system: RXF 393; experiment: Growth inhibition of human RXF 393 cells at 10 uM relative to control; format: functional; conditions: read-out: GI
[38] = test system: M14; experiment: Growth inhibition of human M14 cells at 10 uM relative to control; format: functional; conditions: read-out: GI
[39] = test system: SK-MEL-2; experiment: Growth inhibition of human SK-MEL-2 cells at 10 uM relative to control; format: functional; conditions: read-out: GI
[40] = test system: OVCAR-5; experiment: Growth inhibition of human OVCAR-5 cells at 10 uM relative to control; format: functional; conditions: read-out: GI
[41] = test system: HCC 2998; experiment: Growth inhibition of human HCC 2998 cells at 10 uM relative to control; format: functional; conditions: read-out: GI
[42] = test system: LOX IMVI; experiment: Growth inhibition of human LOX IMVI cells at 10 uM relative to control; format: functional; conditions: read-out: GI
[43] = test system: A549; experiment: Growth inhibition of human A549 cells at 10 uM relative to control; format: functional; conditions: read-out: GI
[44] = test system: SK-MEL-5; experiment: Growth inhibition of human SK-MEL-5 cells at 10 uM relative to control; format: functional; conditions: read-out: GI
[45] = test system: NCI-H322M; experiment: Growth inhibition of human NCI-H322M cells at 10 uM relative to control; format: functional; conditions: read-out: GI
[46] = test system: MCF7; experiment: Growth inhibition of human MCF7 cells at 10 uM relative to control; format: functional; conditions: read-out: GI
[47] = test system: NCI-H460; experiment: Growth inhibition of human NCI-H460 cells at 10 uM relative to control; format: functional; conditions: read-out: GI
[48] = molecular target: DNA; experiment: Displacement of methyl green from DNA (unknown origin) assessed as DNA intercalation after 24 hrs by colorimetric assay; format: nucleic-acid assay
[49] = test system: A498; experiment: Growth inhibition of human A498 cells at 10 uM relative to control; format: functional; conditions: read-out: GI
[50] = test system: SF-539; experiment: Growth inhibition of human SF-539 cells at 10 uM relative to control; format: functional; conditions: read-out: GI
[51] = test system: SNB-75; experiment: Growth inhibition of human SNB-75 cells at 10 uM relative to control; format: functional; conditions: read-out: GI
[52] = test system: BT-549; experiment: Growth inhibition of human BT-549 cells at 10 uM relative to control; format: functional; conditions: read-out: GI
[53] = test system: NCI-H522; experiment: Growth inhibition of human NCI-H522 cells at 10 uM relative to control; format: functional; conditions: read-out: GI
[54] = test system: CCRF-CEM; experiment: Growth inhibition of human CCRF-CEM cells at 10 uM relative to control; format: functional; conditions: read-out: GI
[55] = test system: K562; experiment: Growth inhibition of human K562 cells at 10 uM relative to control; format: functional; conditions: read-out: GI
[56] = test system: MDA-MB-435; experiment: Growth inhibition of human MDA-MB-435 cells at 10 uM relative to control; format: functional; conditions: read-out: GI
[57] = test system: HCT-116; experiment: Growth inhibition of human HCT-116 cells at 10 uM relative to control; format: functional; conditions: read-out: GI
[58] = test system: TK-10; experiment: Growth inhibition of human TK-10 cells at 10 uM relative to control; format: functional; conditions: read-out: GI
[59] = test system: 786-0; experiment: Growth inhibition of human 786-0 cells at 10 uM relative to control; format: functional; conditions: read-out: GI

Work on `COc1cc(/C=C/C2=CC(c3cc(OC)c(OC)c(OC)c3)N3C(C)=CSC3=N2)cc(OC)c1OC` (centres undefined) yielded an inhibition of growth at 10 µM [1] of less than 10%, an inhibition of growth at 10 µM [2] of less than 10% and an inhibition of growth at 10 µM [3] of less than 10%. The inhibition of growth at 10 µM [4] was less than 10%, the inhibition of growth at 10 µM [5] was less than 10% and the inhibition of growth at 10 µM [6] was less than 10%. For the same compound, the inhibition of growth at 10 µM [7] was less than 10%, the inhibition of growth at 10 µM [8] was less than 10% and the inhibition of growth at 10 µM [9] was less than 10%. For the same compound, the inhibition of growth at 10 µM [10] was less than 10%, the inhibition of growth at 10 µM [11] was less than 10% and the inhibition of growth at 10 µM [12] was less than 10%. For the same compound, the inhibition of growth at 10 µM [13] was less than 10%, the inhibition of growth at 10 µM [14] was less than 10% and the inhibition of growth at 10 µM [15] was less than 10%. It also gave an inhibition of growth at 10 µM [16] of less than 10%, an inhibition of growth at 10 µM [17] of less than 10% and an inhibition of growth at 10 µM [18] of less than 10%. The inhibition of growth at 10 µM [19] was less than 10%, the inhibition of growth at 10 µM [20] was less than 10% and the inhibition of growth at 10 µM [21] was less than 10%. For the same compound, the inhibition of growth at 10 µM [22] was less than 10%, the inhibition of growth at 10 µM [23] was less than 10% and the inhibition of growth at 10 µM [24] was less than 10%. The inhibition of growth at 10 µM [25] was less than 10%, the inhibition of growth at 10 µM [26] was less than 10% and the inhibition of growth at 10 µM [27] was less than 10%. The inhibition of growth at 10 µM [28] was less than 10%, the inhibition of growth at 10 µM [29] was less than 10% and the inhibition of growth at 10 µM [30] was less than 10%. The inhibition of growth at 10 µM [31] was less than 10%, the inhibition of growth at 10 µM [32] was less than 10% and the inhibition of growth at 10 µM [33] was less than 10%. The inhibition of growth at 10 µM [34] was less than 10%, the inhibition of growth at 10 µM [35] was less than 10% and the inhibition of growth at 10 µM [36] was less than 10%. It also gave an inhibition of growth at 10 µM [37] of less than 10%, an inhibition of growth at 10 µM [38] of less than 10% and an inhibition of growth at 10 µM [39] of less than 10%. It also gave an inhibition of growth at 10 µM [40] of less than 10%, an inhibition of growth at 10 µM [41] of less than 10% and an inhibition of growth at 10 µM [42] of less than 10%. It also gave an inhibition of growth at 10 µM [43] of less than 10%, an inhibition of growth at 10 µM [44] of less than 10% and an inhibition of growth at 10 µM [45] of less than 10%. It also gave an inhibition of growth at 10 µM [46] of less than 10%, an inhibition of growth at 10 µM [47] of less than 10% and an IC50 [48] of 91.48 µg/mL (≈ 179 µM). It also gave an inhibition of growth at 10 µM [49] of less than 10%, an inhibition of growth at 10 µM [50] of less than 10% and an inhibition of growth at 10 µM [51] of 12.5%. For the same compound, the inhibition of growth at 10 µM [52] was less than 10%, the inhibition of growth at 10 µM [53] was 14.5% and the inhibition of growth at 10 µM [54] was less than 10%. For the same compound, the inhibition of growth at 10 µM [55] was less than 10%, the inhibition of growth at 10 µM [56] was less than 10% and the inhibition of growth at 10 µM [57] was less than 10%. The inhibition of growth at 10 µM [58] was less than 10% and the inhibition of growth at 10 µM [59] was less than 10%.

Reference: ChEMBL document CHEMBL4665869, “New thiazolopyrimidine as anticancer agents: Synthesis, biological evaluation, DNA binding, molecular modeling and ADMET study” (Bioorg Med Chem Lett, 2020)
